Where “and” joins values, the source holds several entries; their conditions need not be identical. Equal values may be shown once. Entries after “also recorded” stand apart in the source; their conditions may differ. Read-outs that look alike come from different tables or passages of the source.
Key:
[1] = biological target: T1, sPHGDH (aa 3-314), cofactor-binding pocket (Homo sapiens, UniProt O43175); experiment: ITC competition experiment (NADH titrated into sPHGDH premixed with fragment); details: for Kd / ΔH / ΔS: competition ITC, 5 mM fragment, 25 °C; for Kd: 0.5 mM NADH into 0.05 mM sPHGDH, 5 % DMSO; for LE: ΔG per number of non-hydrogen atoms (= #)
T1 construct: the truncated version (sPHGDH, aa 3-314); His6 (N, cleaved yes); TEV protease recognition site (N, cleaved yes); made in house; host or cells: E. coli Rosetta (DE3)
T1 sequence (O43175 3-314): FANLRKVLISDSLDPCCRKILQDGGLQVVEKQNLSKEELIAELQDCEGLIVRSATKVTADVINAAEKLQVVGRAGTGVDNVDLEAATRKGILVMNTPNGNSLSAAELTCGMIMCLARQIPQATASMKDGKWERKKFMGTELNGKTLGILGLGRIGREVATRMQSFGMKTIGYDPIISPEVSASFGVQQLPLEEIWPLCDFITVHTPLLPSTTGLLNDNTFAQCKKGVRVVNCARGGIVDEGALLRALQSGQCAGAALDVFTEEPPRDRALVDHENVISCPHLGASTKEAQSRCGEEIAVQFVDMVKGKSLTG
Procedure: To remove residual bound cofactor, sPHGDH was incubated with 0.5 equivalents of activated charcoal for 30 minutes at room temperature prior to performing the ITC experiments. […] 1 x 0.5 μL, followed by 17 x 2 μL injections of ligands into protein with 120 seconds spacing between the injections was conducted. Titration of 0.5 mM NADH in 5 % DMSO into 0.05 mM sPHGDH in 5 % DMSO was used as reference.

[2] = biological target: T2, recombinant full-length PHGDH (Homo sapiens, UniProt O43175); experiment: Differential scanning fluorimetry (DSF) thermal shift assay, fragment screen; type: binding; set-up: key to Z score: Z-score of Tm shift, in standard deviations from the screen mean; details: for Z score: average Z score of primary fragment screens by DSF; for ΔTm at 1000 µM: fragment 1 mM, primary DSF screen, 15 μM PHGDH, read-out: ΔTm (screening hit); for ΔTm (repurchased fragment): DSF
T2 construct: encoding for the full-length enzyme (aa 1-533); His6 (N, cleaved yes); TEV protease recognition site (N, cleaved yes); made in house; host or cells: E. coli Rosetta (DE3)
T2 sequence (O43175 1-533): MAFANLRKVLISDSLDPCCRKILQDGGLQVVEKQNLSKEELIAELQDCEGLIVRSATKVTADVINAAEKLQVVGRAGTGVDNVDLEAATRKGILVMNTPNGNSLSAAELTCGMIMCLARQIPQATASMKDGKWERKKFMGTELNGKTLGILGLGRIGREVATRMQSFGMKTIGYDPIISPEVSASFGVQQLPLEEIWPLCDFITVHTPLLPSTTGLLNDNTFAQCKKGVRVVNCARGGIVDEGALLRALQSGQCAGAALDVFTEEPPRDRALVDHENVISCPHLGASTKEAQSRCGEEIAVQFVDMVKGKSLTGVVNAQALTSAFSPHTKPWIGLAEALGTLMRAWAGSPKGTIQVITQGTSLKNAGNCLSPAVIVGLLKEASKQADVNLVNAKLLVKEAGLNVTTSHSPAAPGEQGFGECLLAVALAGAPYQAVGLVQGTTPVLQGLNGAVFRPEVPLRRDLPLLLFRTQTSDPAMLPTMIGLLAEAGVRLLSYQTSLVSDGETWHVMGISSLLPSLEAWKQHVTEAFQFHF
Procedure: In this study a ‘rule-of-three’ [18] compliant library of 600 fragments (CRT Cambridge, UK) was screened against recombinant full-length PHGDH using a differential scanning fluorimetry (DSF) assay. PHGDH has an average melting temperature (Tm) of 54 °C. Fragments were screened at 1 mM in the presence of 1 % DMSO. 1 mM NADH was used as positive control, and gave an increased Tm of 61 °C, corresponding to a Δ Tm of 7 °C (Supplementary Figure S2). Hits were determined based on an average Z-score ≥ 1, i.e. to a change in Tm of PHGDH equal to or greater than one standard deviation of the mean (Supplementary Table S1). Applying this threshold, 42 compounds were classified as hits, which corresponds to a hit rate of […]. A subset of 15 fragments was commercially available and were repurchased and further evaluated in an ITC competition experiment (Figure 3, Table 1, Supplementary Figure S3). The ITC competition experiments confirmed binding of 13 fragments to the cofactor-binding pocket of PHGDH. […] In order to further characterise the hits, and to help us prioritise their use as seeds for further hit-expansion studies, we undertook a crystallographic investigation of their respective binding modes.
The DSF assay was performed in 384-well plates (Corning, black) in 25 mM HEPES, pH 7.5, 100 mM NaCl, 0.5 mM TCEP, 10 x SYPRO® Orange (Thermo Fisher Scientific), in a final volume of 15 μL containing 15 μM PHGDH and […]. The fragments were added from a 100 mM master stock in 100 % DMSO to a final concentration of 1 mM using an ECHO® acoustic liquid handler (Labcyte). Reference wells contained DMSO only and 1 mM NADH was used as positive control.
The heat denaturation profile of PHGDH was followed using the fluorescence of Sypro Orange with excitation and emission wavelengths of 470 and 570 nm, respectively. Analysis was performed in GraphPad Prism using the Boltzmann equation to determine the melting temperature, Tm, which is the inflection point of the sigmoidal denaturation curve.

PHGDH = details: cited from earlier work

SMILES | Kd [1] | Z score [2] | ΔTm at 1000 µM [2] | ΔTm (repurchased fragment) [2] | Kd ([1]; read-out: Kd) | ΔH [1] | ΔS [1] | LE [1] | fold weaker binding affinity compared to 17 ([1]; competitive ITC Kd, versus 17) | ΔTm ([2]; 1 mM NADH positive control) | Tm of PHGDH in presence of compound ([2]; 1 mM NADH positive control, PHGDH alone Tm 54 °C) | fold reduced affinity compared to fragment 16 ([1]; competitive ITC Kd, versus 16) | mode of PHGDH inhibition (PHGDH)
Oc1noc2ccc(Br)cc12 [Fragment 20] | no binding affinity was detected; also recorded: Compound precipitated |  |  |  |  |  |  |  |  |  |  |  | 
Oc1ncnc2cccc(F)c12 [Fragment 4, 5-Fluoro-4-hydroxy quinazoline] |  | 1.0 ± 0.8 | 2.4 ± 1.1 °C | 0.2 ± 0.3 °C | 12.8 ± 2.7 mM | 1.98 kcal/mol | -0.01 kJ (mol x K) | 0.21 kcal/(mol·heavy atom) |  |  |  |  | 
Oc1noc2ccc(F)cc12 [Fragment 19, 5-fluoro-3-hydroxybenzisoxazole] |  |  |  |  | 15.4 ± 10.2 mM | -45.43 kcal/mol | -0.67 kJ (mol x K) | 0.22 kcal/(mol·heavy atom) | 6 fold |  |  |  | 
O=C1COc2cc(O)ccc21 [Fragment 8, 6-Hydroxy-2,3-dihydrobenzo[b] furan-3-one] |  | 1.5 ± 0.4 | 1.7 ± 0.6 °C | 0.4 ± 0.4 °C | 5.9 ± 1.5 mM | -69.96 kcal/mol | -1.02 kJ (mol x K) | 0.28 kcal/(mol·heavy atom) |  |  |  |  | 
Oc1noc2cc(Cl)ccc12 [Fragment 17, 6-chloro-3-hydroxybenzisoxazole] |  |  |  |  | 2.4 ± 0.7 mM | -362.64 kcal/mol | -5.14 kJ (mol x K) | 0.32 kcal/(mol·heavy atom) |  |  |  |  | 
COc1ccc(NC(C)=O)cc1Cl [Fragment 15, N-(3-chloro-4-methoxyphenyl) acetamide] |  | 1.2 ± 0.3 | 1.3 ± 0.2 °C | -0.2 ± 0.4 °C | 2.8 ± 1.6 mM | -419.02 kcal/mol | -5.93 kJ (mol x K) | 0.27 kcal/(mol·heavy atom) |  |  |  |  | 
Nc1cccc(-c2cnco2)c1 [Fragment 10, 3-(1,3-oxazol-5-yl)aniline] |  | 1.0 ± 0.9 | 1.4 ± 0.6 °C | -0.8 ± 0.3 °C |  | -62.33 kcal/mol | -0.91 kJ (mol x K) |  |  |  |  |  | 
CCc1nc(C)c[nH]1 [Fragment 2, 2-Ethyl-4-methylimidazole] | No competition | 1.0 ± 1.0 | 2 ± 2.1 °C | -0.1 ± 0.2 °C |  |  |  |  |  |  |  |  | 
Cc1cccc2cc[nH]c12 [Fragment 6, 7-Methyl-1H-indole] |  | 1.1 ± 0.7 | 2.4 ± 1.2 °C | 0.2 ± 0.2 °C | 1.5 ± 0.2 mM | -380.95 kcal/mol | -5.40 kJ (mol x K) | 0.38 kcal/(mol·heavy atom) |  |  |  |  | 
Oc1noc2ccccc12 [Fragment 16, 3-Hydroxy benzisoxazole] |  | 1.4 ± 0.7 | 2.5 ± 0.7 °C | 0.2 ± 0.3 °C | 6.5 ± 4.7 mM | -91.44 kcal/mol | -1.33 kJ (mol x K) | 0.3 kcal/(mol·heavy atom) |  |  |  |  | 
Cn1nc(-c2ccccc2)cc1N [Fragment 3, 1-Methyl-3-phenyl-1H-pyrazol-5-amine] |  | 1.0 ± 0.4 | 2.2 ± 0.8 °C | -0.2 ± 0.2 °C | 5.8 ± 2 mM | -111.7 kcal/mol | -1.61 kJ (mol x K) | 0.23 kcal/(mol·heavy atom) |  |  |  |  | 
Cc1cncc(Oc2cccc(N)c2)n1 [Fragment 11, 3-(6-Methylpyrazin-2-yl)oxyaniline] |  | 1.1 ± 0.6 | 1.7 ± 0.7 °C | -0.6 ± 0.6 °C | 11.5 ± 8.4 mM | -2.75 kcal/mol | -0.08 kJ (mol x K) | 0.18 kcal/(mol·heavy atom) |  |  |  |  | 
NC(=O)C1=CN([C@@H]2O[C@H](COP(=O)(O)OP(=O)(O)OC[C@H]3O[C@@H](n4cnc5c(N)ncnc54)[C@H](O)[C@@H]3O)[C@@H](O)[C@H]2O)C=CC1 [NADH, reference compound] |  |  |  |  |  |  |  |  |  | 7 °C | 61 °C |  | 
NC(=O)c1ccc(F)c(Cl)c1 [Fragment 5, 3-Chloro-4-fluorobenzamide] |  | 1.0 ± 0.8 | 2.3 ± 1 °C | -0.1 ± 0.2 °C | 1.6 ± 0.2 mM | -1.29 kcal/mol | -0.07 kJ (mol x K) | 0.35 kcal/(mol·heavy atom) |  |  |  |  | 
Cc1ccc(F)cc1C(=O)O [Fragment 14, 5-Fluoro-2-methylbenzoic acid] |  | 1.1 ± 0.2 | 1.4 ± 0.5 °C | 0.4 ± 0.3 °C | 26 mM and 26.2 mM | -11.2 kcal/mol | -0.19 kJ (mol x K) | 0.2 kcal/(mol·heavy atom) |  |  |  |  | 
Oc1ccnc(O)c1 [Fragment 13, 2,4.Dihydroxy pyridine] | No competition | 1.4 ± 0.2 | 0.8 ± 0.1 °C | 0.3 ± 0.1 °C |  |  |  |  |  |  |  |  | 
Cc1cccc2c(O)noc12 [Fragment 18] |  |  |  |  | 15.9 ± 7.4 mM | -46.44 kcal/mol | -0.67 kJ (mol x K) | 0.22 kcal/(mol·heavy atom) |  |  |  | 2.5 fold | 
Cc1cncc(Oc2cccc(CO)c2)n1 [Fragment 7, [3-(6-Methylpyrazin-2-yl)oxyphenyl] methanol] |  | 1.2 ± 0.9 | 1.8 ± 1.7 °C | -0.3 ± 0.2 °C | 16.6 ± 10.4 mM | 3.78 kcal/mol | 0.02 kJ (mol x K) | 0.15 kcal/(mol·heavy atom) |  |  |  |  | 
Cn1ccc2cc(N)ccc21 [Fragment 9, 5-Amino-1-methyl-1H-indole] |  | 1.8 ± 1.4 | 2 ± 1.2 °C | 1.2 ± 0.4 °C | 11.1 ± 5 mM | -24.38 kcal/mol | -0.38 kJ (mol x K) | 0.24 kcal/(mol·heavy atom) |  |  |  |  | 
CCOC(=O)c1sc(NC(=O)c2ccco2)c(SC#N)c1C [CBR-5884] |  |  |  |  |  |  |  |  |  |  |  |  | non-competitive
c1ccc(Cn2ccnc2)cc1 [Fragment 12, 1-Benzylimidazole] |  | 1.1 ± 0.2 | 1.3 ± 0.9 °C | -0.6 ± 0.4 °C | 11.8 ± 9.6 mM | -15.4 kcal/mol | -0.25 kJ (mol x K) | 0.22 kcal/(mol·heavy atom) |  |  |  |  | 

Reference: publication PMC5862567, “Validating and enabling phosphoglycerate dehydrogenase (PHGDH) as a target for fragment-based drug discovery in PHGDH-amplified breast cancer” (Oncotarget, 2016)
